The source of these data is a melting point compilation (Tetko et al.; mined from patent text by program, amines drawn as free bases though some values may be those of a salt).

Where only a bound is given, the exact number is not on record here.

What is called melting point is the temperature of the solid-liquid transition.

In the case of `Cc1cc(Nc2ncnc3ccc(-n4ccnc4)cc23)ccc1OCc1ccccn1`, the melting point was in the range of 208 to 211 °C. For `CC(C)=NOCc1nc2c(N)nc3ccccc3c2n1CC(C)(C)O` the value was 212 to 216 °C. As for `Cc1cc(Br)cnc1CCCCNC1=NS(=O)(=O)N=C1N`, the figure is 219 to 220 °C; as for `Cc1ccc(Oc2c(N3C(C)CCC3C)cc(C(=O)O)cc2S(N)(=O)=O)cc1` (stereo not given), 191 to 193 °C. For `Cc1cc(Oc2ccc(N)cc2)ccc1-c1ccc(Oc2ccc(N)cc2)cc1C` the value was 140 °C. `CN(C)S(=O)(=O)n1cnc(S(=O)(=O)NCc2ccc(Cl)cc2)c1` came in with a melting point of 171 to 173 °C. In turn, `CNC(C)=C(C(C)=O)S(=O)(=O)NC(=O)Nc1nc(C)cc(C)n1` displayed a melting point of 192 °C. Regarding `COC(=O)COc1cc2c(c(Cl)c1Cl)C(=O)C(c1ccccc1)C2` (stereo not given), the melting point is 152 to 153 °C. For `Cc1nc(C)c(Cl)c(NCc2nccc(SCCCCBr)c2C)n1` the value was 127 to 128 °C. In turn, `CCOC(=O)c1c(N2CCN(Cc3ccccc3)CC2)n[nH]c1C` had a melting point of 124 to 126 °C. As for `Cc1ncc(CNC(=O)c2ccc3n2Cc2ccccc2N(C(=O)CSc2ccc(Br)cc2)C3)c(CO)c1O`, the figure is 199 to 200 °C; as for `COc1ccc2c(c1)c(C)c(CC(C)C(=O)O)n2Cc1ccc(Cl)cc1` (stereo not given), 128 °C; as for `CON=C(C)CCCn1c(C)nc2c(N)nc3ccccc3c21`, 158 to 161 °C. As for `Cc1cc(C)nc(NC(=O)Cc2ccc(Br)s2)c1`, the melting point is 87 °C. As for `CCc1c(C)[nH]c(=O)c(CC)c1Oc1cc(C)cc(C)c1`, the figure is 180 °C; as for `CC(=O)c1cccc(-c2ccc(Oc3ncccc3C(=O)O)cc2)c1`, 188 °C. As for `O=C(O)CCNc1ccc(-c2ccc3nnn(Cc4ccc5ncccc5c4)c3n2)cc1F`, the figure is 132 to 135 °C; as for `COc1cccc(Cc2cc3cccc(-c4cccc(C(=O)O)c4)c3o2)c1`, 127 to 129 °C. As for `CC(C)n1nc(-c2nc(C(=O)O)c(N)nc2-c2ccccc2)ccc1=O`, the figure is 233 to 235 °C; as for `O=C(O)C1CCN(c2ncc(NS(=O)(=O)c3ccc(Br)cc3)c(NCc3ccccc3)n2)CC1`, 136 to 138 °C.

`OCC1(n2nc3ccccc3n2)OCC1c1ccccc1` (stereo not given) showed a melting point of 119 to 123 °C. Consider `CS(=O)(=O)Oc1ccc(S)cc1`, for which the melting point was in the range of 66 to 68 °C. For `CCO/C=C/C(=O)Nc1ccc(Br)cc1C` the value was 163 to 164 °C.

For `CC(=O)OCC(=O)C1=CCC2C3CCC4=CC(=O)C=CC4(C)C3C(O)CC12C` (stereo not given), the melting point lay within 203 to 205 °C. The compound `Cc1cccc(CCOc2cccc(-c3cccc(C(=O)O)c3)n2)c1` showed a melting point of 125 to 126 °C. `CC(=O)c1ccc(C2CCCC2)cc1` gave a melting point of 100 to 102 °C. For `CCCNS(=O)(=O)CCCCl` the value was 47.5 to 48 °C. For `COc1ccc(-n2nc3c(-c4ccccc4)c(C)[nH]cc-3c2=O)cc1` the value was 300 to 310 °C; for `Cc1c(C)c2c(c(C)c1N)CC(C)(CN1CCC(CCc3ccccc3)CC1)O2` (stereo not given), 91 to 92 °C.

In turn, `O=C(c1cc(C(F)(F)F)cc(C(F)(F)F)c1)N1CCC2(CC1)C(=O)NCN2c1ccccc1` registered a melting point of 251 °C. As for `COC(=O)Cn1nnnc1CCC(NC(=O)CCC(C)(NC(=O)OCc1ccccc1)C(=O)O)C(=O)OC` (stereo not given), the figure is 64 to 65 °C; as for `O=C1CCC(=O)N1Cn1nnc(-c2ccnc(-c3nnn(CN4C(=O)CCC4=O)n3)c2)n1`, 190 to 192 °C.

With `COc1cc(C(=O)Cc2ccccc2)ccc1O`, the melting point lay within 107 to 108 °C.

`CCCCCc1nc2cnc3ccccc3c2[nH]1`: the melting point was 142 to 143 °C. For `COc1cccc2c1CCC(COS(=O)(=O)c1ccc(C)cc1)C2` (stereo not given) the value was 81 to 82 °C; for `CC(C)Oc1ccc(S(=O)(=O)N2CCCC2=O)cc1`, 88 to 90 °C; for `CC(c1ccc(N(C)C)cc1)c1ccc(N(C)C)cc1`, 68 °C. For `Nc1cc(C(=O)Nc2ccccc2)ccc1OC(F)(F)F` the value was 160 to 162 °C. For `CCCOc1ccc(F)c2c(=O)c3ccccc3sc12` the value was 125 to 127 °C; for `CC(N)CC(=O)N(c1ccc(Nc2ccccc2)cc1)C(C)C` (stereo not given), 145 to 151 °C; for `CC1(C)Oc2cc([N+](=O)[O-])sc2C(N2CCCC2=O)C1O` (stereo not given), 214 to 217 °C. Compound `O=C(CCC1CCC(=O)N1)Nc1ccncc1` (stereo not given) had a melting point of 187 to 188 °C. For the compound `C=CCc1c(O)c(=O)[nH]c2cc(Cl)ccc2c1=O`, the melting point fell in the range of 172 to 174 °C. For `COc1ccc2c(c1)C(=O)C(CC=O)C2` (racemic) the value was 59 °C; for `CC(Sc1nc(SCc2ccccc2)n[nH]1)C(=O)O` (stereo not given), 123 to 124 °C. As for `N#C[C@@H](Cc1ccccc1)Oc1c(Br)cc(-c2c3ccccc3c(Br)c3sc4ccccc4c23)cc1Br`, the figure is 160 to 165 °C; as for `CN1CC(=O)OC2CCN(C(=O)c3ccc(NC(=O)c4ccccc4Cl)cc3)c3ccccc3C21` (stereo not given), 286 to 290 °C; as for `CCOc1ccc(O)c(F)c1F`, 73 °C. `COc1ccccc1N1CCN(CCCC2CCc3onc(-c4ccc(F)cc4)c3C2=O)CC1` (stereo not given) yielded a melting point of 107 to 108 °C. In turn, `Cn1cc(CS(C)(=O)=O)c(=O)c2ccccc21` displayed a melting point of 200 to 201 °C. For `COc1ccc2c(c1)CCC(N(CC(=O)O)C(=O)C(C)CSC(C)=O)C2` (stereo not given) the value was 118 to 122 °C; for `Cc1ccc(Oc2ccc([N+](=O)[O-])cc2-c2ncon2)c(O)c1`, 159 to 160 °C; for `Nc1nc(OCOC(=O)C2CCCC2)ncc1F`, 101 to 104 °C.

The compound `Cc1ccc(-c2nnc3c(n2)CCCC3)nc1-c1ccc(F)cc1` showed a melting point of 105 °C.

Take `c1cn(CC2(CCCC3CCCC3)SCCS2)cn1`: the melting point was 136 to 137 °C. For `N#Cc1ccc(-c2nc(N3C(=O)OCC34CC4)sc2F)cc1`, the melting point fell in the range of 222 to 224 °C. As to `CNC(=O)c1cc(C#N)cc(C)c1N`, the melting point was 202 to 203 °C. For `CSc1ccc(-c2cc3ncnc(Nc4ccc5[nH]ccc5c4)c3s2)cc1` the value was 163 to 178 °C. Compound `Oc1cccc(/C=C/c2nc3ccccc3s2)c1` had a melting point of 210 to 211 °C. As for `CN1C(=O)[C@@H](NC(=O)C2CCCCC2)N=C(c2ccccc2)c2ccccc21`, the figure is 212 to 214 °C; as for `O=c1c(CCc2cccnc2)cc2cccnc2n1-c1cccc([N+](=O)[O-])c1`, 221 to 223 °C; as for `O=C(NCc1ccccc1)c1cn2c(=O)n(Cc3ccc(Cl)c(Cl)c3)c(=O)cc2s1`, 216 to 217 °C.

Regarding `CS(=O)(=O)c1cccc(Cc2cc3cccc(-c4cccc(C(=O)NCC(N)=O)c4)c3s2)c1`, the melting point was 189 to 193 °C.

On to `Cc1ccc2cc(-c3cccc4ccccc34)nc(Cl)c2c1`, for which the melting point came to 93 °C. As for `CCCC1=C(C(=O)OCC)C(c2c(OC)ccc3ccccc23)c2c[nH]nc2N1` (stereo not given), the figure is 188 to 191 °C. The compound `CCc1nn(-c2c(Cl)cc(C(F)(F)F)cc2Cl)c(CC)c1Cc1c(OC)ccc2ccccc12` showed a melting point of 96 to 98 °C. For `C[C@@H](n1cnc2cc(N3CCN(C)CC3)c(F)cc2c1=O)[C@](O)(Cn1cncn1)c1ccc(F)cc1F` the value was 106 to 112 °C; for `Cn1c(C(F)(F)F)cc(=O)n(-c2ccc(Cl)c(C=O)c2)c1=O`, 151 to 153 °C; for `Cc1c(C)c2c(c(C)c1NC(=O)CC(C)(C)C)OC(C)(C)C2c1ccc(C(C)C)cc1` (stereo not given), 128 to 129 °C. As for `Cc1ccccc1C=C1CCn2c1nc1ccc(C(=O)O)cc1c2=O`, the figure is 285 to 287 °C.

Compound `COc1cn(-c2ccc(I)cc2F)nc(-c2ccnn2-c2ccccc2)c1=O` displayed a melting point of 194 to 196 °C. As for `COc1ccccc1N1CCN(CCNc2c(OC)cnn(C)c2=O)CC1`, the melting point lay in the range of 144 to 148 °C. As to `O=S1(=O)N=Cc2ccccc2O1`, the melting point was 44 to 47 °C. As for `CC(=O)OC1CSC(Oc2ccc(C)nc2C)C(OC(C)=O)C1OC(C)=O` (stereo not given), the figure is 139 to 140 °C; as for `CCCN(CCN1CCN(C(=O)c2n[nH]c3ccccc23)CC1)C1CCc2c(O)cccc2C1` (stereo not given), 167 to 170 °C. As for `CNC(=O)NN(CC(=O)OC)c1cccc(Cl)c1`, the figure is 121 to 122 °C; as for `CCOC(=O)OC1CCN(C(=O)OCC)Cc2cc3ccccc3nc21` (stereo not given), < 40 °C; as for `CC(=O)N1CCc2cc(C(=O)CCCCCBr)ccc21`, 110 to 111 °C. As for `COc1ccc2c(N)cccc2c1C(F)(F)F`, the melting point was found to be 120 °C. For `O=C1c2cc(OCc3ccccc3)ccc2OCC1Oc1ccccc1` (stereo not given) the value was 100 to 102 °C. As for `CCOC(=O)c1nc2cccc(F)c2nc1C`, the figure is 87 to 89 °C; as for `CC(C)(C)OC(=O)N[C@@H]1CN(c2ccccc2)c2ccccc2NC1=O`, 160 to 165 °C. For `CC(=O)SCCC(=O)N1[C@@H](c2ccccc2O)SC[C@H]1C(=O)N(c1ccccc1)[C@@H](C)C(=O)OC(C)(C)C` the value was 140 to 142 °C. For `CN(C)c1nnc(-c2nnc(SCCC(F)=C(F)F)o2)o1`, the melting point lay within 87 to 90 °C. For `O=C([C@@H]1C[C@@H]2CCCC[C@@H]2N1)N1CCCC1` the value was 83 °C; for `COc1c(NS(=O)(=O)c2ccccc2)cccc1C(=O)Nc1ccccc1`, 190 to 194 °C; for `CC(C)=C(C(=O)O)c1ccc(F)cc1`, 124 to 126 °C. Take `CON(C)C(=O)[C@@H](Cc1ccc(OCc2ccccc2)cc1)NC(=O)OC(C)(C)C`: the melting point lay within 107 to 109 °C. For `CCOC(=O)Cc1ccc(NC(=O)C(COc2ccc(Cl)cc2)NS(=O)(=O)c2ccc(Cl)cc2)cc1` (racemic) the value was 136 to 138 °C; for `Cn1cc2c(nc(NC(=O)Nc3ccc(CC(=O)O)cc3)n3nc(-c4ccco4)nc23)n1`, > 300 °C.
